According to PMC8787488, “Two-Metal Ion-Dependent Enzymes as Potential Antiviral Targets in Human Herpesviruses” (mBio, 2022):

Tests used:
UL12 = biological target: T1, UL12 (Human alphaherpesvirus 1 strain 17, UniProt P04294); experiment: PicoGreen dsDNA exonuclease assay; type: biochemical; settings: 10 nM UL12, 1 nM linearized pUC19 DNA, 1 mM MgCl2, pH 8.2, 37°C
T1 construct: full-length alkaline nuclease, purified from baculovirus-infected Sf9 cells

His-UL30ΔN42 = biological target: T2, His-UL30ΔN42 (Human alphaherpesvirus 1 strain KOS, UniProt P04292); experiment: gel-based primer extension polymerase assay; type: biochemical; settings: 50 nM enzyme, dNTPs, 10 mM MgCl2, pH 7.6, 37°C
T2 construct: gene UL30; His-tagged, N-terminal 42 residues deleted; gift from Donald Coen; no UL42 mentioned

ICP8Δ60 = biological target: T3, ICP8Δ60 (Human alphaherpesvirus 1 strain KOS, UniProt P17470); experiment: thermal shift, nanoDSF (Tycho NT.[…]); type: binding; settings: 20x molar excess of compound to protein, 5 mM MgCl2, pH 7.5, without ssDNA
T3 construct: gene DBP; 60-residue deletion; source not described

UL15C = biological target: T4, UL15C (Human alphaherpesvirus 1 strain 17, UniProt P04295); experiment: dual-probe fluorescence nuclease assay; type: biochemical
T4 construct: gene TRM3; C-terminal nuclease domain, residues 471 to 736, pET28b(+), from E. coli BL21(DE3); without UL28 and UL33
T4 sequence (P04295 471-735): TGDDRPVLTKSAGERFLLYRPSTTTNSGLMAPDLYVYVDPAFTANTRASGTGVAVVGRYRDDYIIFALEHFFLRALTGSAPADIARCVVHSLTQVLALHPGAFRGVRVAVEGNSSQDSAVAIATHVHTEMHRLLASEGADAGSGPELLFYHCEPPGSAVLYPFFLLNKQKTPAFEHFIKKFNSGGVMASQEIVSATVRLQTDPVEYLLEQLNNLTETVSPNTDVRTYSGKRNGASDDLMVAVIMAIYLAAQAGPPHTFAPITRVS

T1 sequence (P04294 whole entry, looked up): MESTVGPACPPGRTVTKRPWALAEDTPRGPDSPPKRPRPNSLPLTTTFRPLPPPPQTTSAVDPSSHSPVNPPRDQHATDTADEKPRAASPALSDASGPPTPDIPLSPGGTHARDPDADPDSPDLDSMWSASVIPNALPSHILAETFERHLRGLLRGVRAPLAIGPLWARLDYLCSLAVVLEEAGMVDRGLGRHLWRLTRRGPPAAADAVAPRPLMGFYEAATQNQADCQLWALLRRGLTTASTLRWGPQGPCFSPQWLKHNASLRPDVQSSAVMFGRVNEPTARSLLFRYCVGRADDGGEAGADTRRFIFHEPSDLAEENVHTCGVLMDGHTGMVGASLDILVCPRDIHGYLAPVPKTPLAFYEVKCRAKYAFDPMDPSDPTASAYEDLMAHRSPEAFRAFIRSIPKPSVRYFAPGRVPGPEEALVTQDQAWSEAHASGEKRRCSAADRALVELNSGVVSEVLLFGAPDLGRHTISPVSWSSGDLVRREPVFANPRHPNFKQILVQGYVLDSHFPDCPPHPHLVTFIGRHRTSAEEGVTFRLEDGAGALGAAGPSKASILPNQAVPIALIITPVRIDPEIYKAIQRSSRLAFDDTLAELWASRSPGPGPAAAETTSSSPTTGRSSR
T3 sequence (P17470 1-1136, stated change not applied): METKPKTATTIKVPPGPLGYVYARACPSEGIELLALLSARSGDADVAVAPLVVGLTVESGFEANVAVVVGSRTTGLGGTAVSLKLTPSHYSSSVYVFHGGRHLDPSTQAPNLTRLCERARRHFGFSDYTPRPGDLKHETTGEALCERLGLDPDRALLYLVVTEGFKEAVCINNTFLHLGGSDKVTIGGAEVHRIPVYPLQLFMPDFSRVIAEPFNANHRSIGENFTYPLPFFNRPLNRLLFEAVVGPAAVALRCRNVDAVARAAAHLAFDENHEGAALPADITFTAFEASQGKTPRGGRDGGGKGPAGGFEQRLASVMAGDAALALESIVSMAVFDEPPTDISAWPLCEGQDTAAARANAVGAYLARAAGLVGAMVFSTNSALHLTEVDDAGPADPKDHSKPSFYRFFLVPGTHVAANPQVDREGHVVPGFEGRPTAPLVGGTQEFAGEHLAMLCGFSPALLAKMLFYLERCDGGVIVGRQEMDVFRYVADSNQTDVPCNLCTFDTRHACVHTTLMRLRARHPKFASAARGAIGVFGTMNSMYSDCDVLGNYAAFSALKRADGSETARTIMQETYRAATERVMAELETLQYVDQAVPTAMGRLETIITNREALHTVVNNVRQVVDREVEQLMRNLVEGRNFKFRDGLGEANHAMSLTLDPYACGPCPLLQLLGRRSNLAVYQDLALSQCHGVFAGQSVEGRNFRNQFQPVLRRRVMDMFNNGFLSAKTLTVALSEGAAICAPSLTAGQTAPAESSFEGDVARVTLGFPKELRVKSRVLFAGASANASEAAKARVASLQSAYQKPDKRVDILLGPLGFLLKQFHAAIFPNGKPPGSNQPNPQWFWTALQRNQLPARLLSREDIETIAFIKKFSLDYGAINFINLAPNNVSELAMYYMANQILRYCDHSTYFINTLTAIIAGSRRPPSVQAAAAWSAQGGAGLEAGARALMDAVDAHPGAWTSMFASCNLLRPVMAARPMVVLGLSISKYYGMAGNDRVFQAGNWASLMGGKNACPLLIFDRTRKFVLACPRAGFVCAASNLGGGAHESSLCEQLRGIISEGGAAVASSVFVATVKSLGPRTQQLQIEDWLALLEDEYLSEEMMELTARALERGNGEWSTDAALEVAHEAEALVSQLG
T2 sequence (P04292 43-1235, stated change not applied): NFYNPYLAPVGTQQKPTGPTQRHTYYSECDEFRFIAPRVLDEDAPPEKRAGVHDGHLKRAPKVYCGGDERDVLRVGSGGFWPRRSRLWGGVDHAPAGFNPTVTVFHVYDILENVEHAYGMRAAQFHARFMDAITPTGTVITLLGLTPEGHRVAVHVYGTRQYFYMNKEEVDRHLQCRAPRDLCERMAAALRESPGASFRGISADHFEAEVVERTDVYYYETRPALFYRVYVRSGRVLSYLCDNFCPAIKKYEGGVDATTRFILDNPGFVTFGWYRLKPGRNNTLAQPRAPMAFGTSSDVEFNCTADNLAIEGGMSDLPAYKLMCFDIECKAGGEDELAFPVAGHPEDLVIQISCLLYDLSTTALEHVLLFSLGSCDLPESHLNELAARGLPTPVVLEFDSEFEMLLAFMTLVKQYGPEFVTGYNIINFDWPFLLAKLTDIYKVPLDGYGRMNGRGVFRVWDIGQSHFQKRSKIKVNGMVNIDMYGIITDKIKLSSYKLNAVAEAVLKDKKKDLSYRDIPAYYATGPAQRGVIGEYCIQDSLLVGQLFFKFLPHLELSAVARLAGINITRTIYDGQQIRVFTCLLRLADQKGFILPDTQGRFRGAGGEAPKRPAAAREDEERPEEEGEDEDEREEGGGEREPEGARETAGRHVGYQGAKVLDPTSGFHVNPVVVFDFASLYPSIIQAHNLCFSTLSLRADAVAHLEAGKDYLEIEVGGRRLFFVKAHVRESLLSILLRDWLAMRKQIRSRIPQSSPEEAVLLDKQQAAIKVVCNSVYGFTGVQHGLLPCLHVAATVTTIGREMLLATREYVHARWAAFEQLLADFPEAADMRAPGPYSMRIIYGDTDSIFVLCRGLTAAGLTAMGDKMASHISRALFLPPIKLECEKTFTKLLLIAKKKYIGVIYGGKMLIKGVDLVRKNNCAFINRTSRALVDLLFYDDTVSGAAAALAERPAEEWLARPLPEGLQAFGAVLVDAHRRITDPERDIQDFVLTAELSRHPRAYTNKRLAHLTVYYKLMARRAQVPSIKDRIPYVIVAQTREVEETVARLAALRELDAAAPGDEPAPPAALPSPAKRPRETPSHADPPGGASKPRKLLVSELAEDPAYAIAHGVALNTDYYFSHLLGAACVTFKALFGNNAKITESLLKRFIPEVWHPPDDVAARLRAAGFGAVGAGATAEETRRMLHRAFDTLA

Row | SMILES | % inhibition at 20 μM (UL12) | inhibition at 20 μM (His-UL30ΔN42) | Ti (ICP8Δ60) | inhibition at 12.5 µM (UL15C) [%]
1 | O=C(Nc1ccc(Br)cc1)c1ccc2cccnc2c1O [AK-157] | strong inhibition was observed for PPG, AK-157, and AK-166 | only AK-157 and the known polymerase inhibitor phosphonoacetic acid (PAA) showed strong inhibition |  | 
2 | CC(C)c1ccc(CNC(=O)c2ccc3cccnc3c2O)cc1 [AK-166] | strong inhibition was observed for PPG, AK-157, and AK-166 |  |  | 
3 | O=c1c(O)cccc2cc(O)c(O)c(O)c12 [purpurogallin] | strong inhibition was observed for PPG, AK-157, and AK-166 |  | RAL had no appreciable interactions with ICP8, while PPG showed a modest effect | 
4 | Cc1nnc(C(=O)NC(C)(C)c2nc(C(=O)NCc3ccc(F)cc3)c(O)c(=O)n2C)o1 [raltegravir] |  |  |  | ~80
